Drawing on PubChem BioAssay AID1959 (Broad Institute, 2009), this text covers EC50 for 61 compounds.

The source made the active and inactive calls.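 How the source made its calls: active means growth-inhibition EC50 no more than tenfold above the top tested dose; inconclusive means flat fit between 30% and 70% inhibition, or unreliable fit; inactive means EC50 more than tenfold above the top tested dose.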

For the experiment, the system named is E. coli NEB5alpha growth, BacTiter-Glo luminescence, 4 h. Nature of the experiment: antibacterial activity against E. coli NEB5alpha – luminescence, counter-screen for MEX-5/POS-1 RNA-binding inhibitor project, dose response (AID 1959).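 Further: pUC19-transformed ampicillin-resistant cells grown in LB with ampicillin.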
For the compound `Cc1cc(NS(=O)(=O)c2ccc(Nc3nc(-c4sc(N)nc4C)cs3)cc2)no1`, the EC50 is > 11 µM (inactive).

Consider `COc1cc(/C=C2/C(=O)NN(c3cccc(C)c3)C2=O)cc([N+](=O)[O-])c1O`, for which the EC50 was > 11 µM (inactive).

Regarding `Cc1c(C(=O)O)cccc1-n1c(C)cc(/C=N/NC(=O)c2cc3ccccc3o2)c1C`, the EC50 was > 11 µM (inactive).

With `CCSC1=N/C(=C\c2ccccc2)C(=O)N1`, the EC50 is > 11 µM (inactive).

Consider `COCCCNC(CC(=O)Nc1cc(C)cc(C)c1)C(=O)O` (stereo unspecified), for which the EC50 was > 11 µM (inactive).

For the compound `N#CC1=C(N)OC2=C(C(=O)CCC2)C1c1cc2c(cc1Cl)OCO2` (stereo unspecified), the EC50 was > 11 µM (inactive).

On to `Cc1nonc1OCCNCCNc1ccc([N+](=O)[O-])c2cccnc12`, for which the EC50 was > 11 µM (inactive).

As for `Cc1ccccc1N=C1NC(=O)/C(=C/c2cccn2-c2cccc(C(=O)O)c2)S1`, the EC50 was > 11 µM (inactive).

Regarding `COc1cccc(N2C(=O)/C(=C/c3ccc(C)o3)C(=O)NC2=S)c1`, the EC50 is > 11 µM (inactive).

In the case of `COc1cccc(=O)c2c(C)oc(C)c12`, the EC50 was > 11 µM (inactive).

`CC1(OC(=O)c2cccs2)C(=O)C=C2C=C(C3CC3)OC=C2C1=O` (stereo unspecified): the EC50 was > 11 µM (inactive).

Turning to `COc1cccc(C(=O)NCC2CCN(c3ccc(S(=O)(=O)N4CCOCC4)cc3)CC2)c1`, the EC50 was > 11 µM (inactive).

As for `O=C(O)c1cccc(-n2cccc2/C=C2\NC(=O)N(Cc3ccc(F)cc3)C2=O)c1`, the EC50 was > 11 µM (inactive).

With `COc1ccc(C(=O)c2sc3nc(C)cc(-c4cccs4)c3c2N)cc1OC`, the EC50 is > 11 µM (inactive).

As to `O=C(NN1C(=O)c2ccccc2NC1c1ccccn1)c1ccc(Br)cc1` (stereo unspecified), the EC50 is > 11 µM (inactive).

As to `Oc1ccc(-c2nc(-c3ccc(O)c(O)c3)cs2)cc1`, the EC50 is > 11 µM (inactive).

Turning to `COc1cc2c(cc1OC)-c1c(OC)c(OC)c(OC)c3ccnc(c13)C2=O`, the EC50 is > 11 µM (inactive).

In the case of `O=C(NNC(=O)c1cnccn1)c1ccc(Cl)cc1`, the EC50 was > 11 µM (inactive).

Consider `COc1ccc(/C=C2\CCCC(C(=O)C(F)(F)F)=C2O)cc1OC`, for which the EC50 is > 11 µM (inactive).

Take `COc1cc([C@H](Cc2ccccc2)NC(C)=O)oc(=O)c1`: the EC50 was > 11 µM (inactive).

For the compound `CCN(CC)c1ccc(N=Cc2ccc(N(CC)CC)cc2O)cc1`, the EC50 is > 11 µM (inactive).

On to `CC(C)(C)OC(=O)NCCCC1=CC2=CC(=O)C(C)(OC(=O)C3CCCC3)C(=O)C2=CO1` (stereo unspecified), for which the EC50 is > 11 µM (inactive).

As to `COc1cc(NC(=O)CSc2nc3ncnc(N)c3[nH]2)c(C(=O)O)cc1OC`, the EC50 was > 11 µM (inactive).

As to `Cc1cc(C(=O)N/N=C/c2ccc(-c3cccc(Cl)c3Cl)o2)n[nH]1`, the EC50 was > 11 µM (inactive).

Take `Cc1nn(C(C)C(=O)N2CCOCC2)c(=O)c2nn(-c3ccccc3)c(C)c12` (stereo unspecified): the EC50 was > 11 µM (inactive).

For `COCCNC(=O)CCC(=O)NNc1nc2ccccc2c2nc(C)nn12`, the EC50 is > 11 µM (inactive).

`CCCCC1=CC2=CC(=O)C(C)(OC(=O)c3ccc(Cl)nc3)C(=O)C2=CO1` (stereo unspecified): the EC50 was > 11 µM (inactive).

As to `CCCN1CCCc2cc(CN)ccc21`, the EC50 is > 11 µM (inactive).

Regarding `CC(=O)N1CCc2c(sc(NC(=O)C3CCCCC3)c2C(N)=O)C1`, the EC50 is > 11 µM (inactive).

For the compound `Cc1nnc(N2C(=O)C(O)=C(C(=O)c3ccco3)C2c2cccc3ccccc23)s1` (stereo unspecified), the EC50 was > 11 µM (inactive).

Turning to `COc1cc(C2NC(=S)NC(C)=C2C(=O)OC(C)C)ccc1OC(C)C` (stereo unspecified), the EC50 is > 11 µM (inactive).

Turning to `O=C(OCCc1ccccc1)c1cc(O)c(O)c(O)c1`, the EC50 was > 11 µM (inactive).

Turning to `COC(=O)CCCC1=CC2=CC(=O)C(C)(OC(=O)c3ccco3)C(=O)C2=CO1` (stereo unspecified), the EC50 is > 11 µM (inactive).

For `CCC(Oc1ccccc1)C(=O)Nc1ccccn1` (stereo unspecified), the EC50 is > 11 µM (inactive).

For `Cc1cc(C=C2C(=O)N(C)C(=S)N(C)C2=O)c(C)n1C1CCCC1`, the EC50 was > 11 µM (inactive).

`CC1(OC(=O)CCc2ccccc2)C(=O)C=C2C=C(C3CC3)OC=C2C1=O` (stereo unspecified): the EC50 is > 11 µM (inactive).

Take `O=C(O)CCC(=O)NCc1ccc2[nH]c3c(c2c1)CCCC3`: the EC50 is > 11 µM (inactive).

Regarding `COc1ccc(C2C=C(c3ccc(Br)s3)Nc3ncnn32)cc1OC` (stereo unspecified), the EC50 was > 11 µM (inactive).

`COC(=O)c1ccc(-n2c(CCC(=O)O)ccc2-c2ccc(C)cc2)cc1`: the EC50 was > 11 µM (inactive).

Turning to `CCCn1c(=N)c(C(=O)NCC2CCCO2)cc2c(=O)n3cccc(C)c3nc21` (stereo unspecified), the EC50 is > 11 µM (inactive).

As to `N#CC(c1nc2ccccc2nc1OCCO)S(=O)(=O)c1ccccc1` (stereo unspecified), the EC50 is > 11 µM (inactive).

Turning to `COc1ccccc1/C=C1/SC(=S)N(CCC(=O)Nc2cccnc2)C1=O`, the EC50 is > 11 µM (inactive).

With `C=CCN1C(=O)NC(=O)/C(=C/c2ccc(OC)c(CSc3ccccn3)c2)C1=O`, the EC50 was > 11 µM (inactive).

Regarding `Cc1cc([N+](=O)[O-])cc2c1NCC1CC=CC21` (stereo unspecified), the EC50 is > 11 µM (inactive).

In the case of `O=C1c2cccc3cccc(c23)C(=O)N1/N=C/c1c(O)n(-c2ccccc2)c(=O)[nH]c1=O`, the EC50 is > 11 µM (inactive).

As for `O=C(O)CSc1cc(NS(=O)(=O)c2ccc(Br)cc2)c2ccccc2c1O`, the EC50 was > 11 µM (inactive).

For `COCCN1C(=O)/C(=C/c2c(OC)cc(OC)cc2OC)C(=O)N(c2ccccc2)C1=O`, the EC50 is > 11 µM (inactive).

For `CSc1nnc(SCc2nc3sc(C(=O)O)c(C)c3c(=O)[nH]2)s1`, the EC50 was > 11 µM (inactive).

With `COc1ccc(OC)c(N=Cc2c(O)n(Cc3ccccc3)c(=S)[nH]c2=O)c1`, the EC50 is > 11 µM (inactive).

As to `CCN(CC)CCCNC(=O)CCC(=O)NNc1nc2ccccc2c2nc(C)nn12`, the EC50 was > 11 µM (inactive).

As for `CCOc1ccc(N/C(=C(/C(Cl)=C(Cl)Cl)[N+](=O)[O-])n2cncn2)cc1`, the EC50 is > 11 µM (inactive).

For the compound `COc1ccc(C2C(C#N)=C(N)OC3=C2C(=O)CCC3)cc1OC` (stereo unspecified), the EC50 is > 11 µM (inactive).

Take `COc1c(O)cc2oc(-c3ccc(O)c(O)c3)cc(=O)c2c1O`: the EC50 was > 11 µM (inactive).

For `CCOC(=O)CSc1nc2ccc(Nc3nc(N4CCOCC4)nc(N4CCOCC4)n3)cc2s1`, the EC50 is > 11 µM (inactive).

Turning to `O=[N+]([O-])c1cc(-c2ccc(/C=N/n3cnnc3)o2)ccc1Cl`, the EC50 is > 11 µM (inactive).

With `CCC(C)n1c(=N)c(C#N)cc2c(=O)n3cccc(C)c3nc21` (stereo unspecified), the EC50 was > 11 µM (inactive).

Turning to `COc1ccc(OC)c(C2=C/C(=C/c3ccccn3)C(=O)O2)c1`, the EC50 was > 11 µM (inactive).

For the compound `CCCN1CCc2cccc3c2[C@H]1Cc1ccc(O)c(O)c1-3`, the EC50 is > 11 µM (inactive).

With `CCOc1ccc(S(=O)(=O)Nc2cc(SCC(=O)O)c(O)c3ccccc23)cc1`, the EC50 is > 11 µM (inactive).

As to `COC(=O)c1ccccc1-n1cccc1C(=O)NP(=O)(N1CCOCC1)N1CCOCC1`, the EC50 is > 11 µM (inactive).

As to `COC(=O)CCCC1=CC2=CC(=O)C(C)(OC(=O)c3ccc(Cl)nc3)C(=O)C2=CO1` (stereo unspecified), the EC50 was > 11 µM (inactive).
